# Test results as given in patent publication US20050272808A1, “Compositions and methods for the treatment of hypertension” (priority 2004, published 2005).
# Experiments:
# [1] = system: Cat iris sphincter smooth muscle (SV-CISM-2) cells; test: cGMP assay (RIA) in cultured smooth muscle cells in presence of IBMX; format: cell-based; details: for cGMP formed % of control / cGMP formed: IBMX present; for cGMP formed: mean±SEM
# Protocol: Cat iris sphincter smooth muscle (SV-CISM-2) cells were maintained in Dulbecco's modified Eagle medium (DMEM), supplemented with 10% fetal calf serum (FCS) and 50 μg/ml gentamicin (culture medium) as described by Ding et al. 1999. (Life Sci. Vol: 64 pp. 161-174) To initiate subculture, confluent SV-CISM-2 cells were washed with Ca^2+-Mg^2+ free Dulbecco's phosphate buffered salt solution (PBS) and treated with 0.05% trypsin in 0.5 mM EDTA for 3 minutes at 37° C. This was followed by addition of culture medium, and the cell suspension was centrifuged at 200 g for 5 minutes. The pelleted cells were suspended in culture medium and seeded in 6-well plates for the cGMP assay. Confluent cells, in 6-well plates were washed once with DMEM and incubated in 2 ml DMEM for 15 minutes at 37° C. IBMX (0.1 mM) was added and incubated for additional 10 minutes. The tested agent was then added and incubations continued for 10 minutes. Anantin (1 μM) or L-NAME (0.1 mM) were added along with IBMX, 10 minutes prior to addition of the tested compound. Reactions were stopped by replacing the medium with 1 ml ice-cold 5% trichloroacetic acid (TCA) (W/V). The obtained samples were homogenized, centrifuged and the supernatants were extracted with anhydrous diethylether. A 100 μl portion of the supernatant from each sample was taken; and after appropriate dilutions cGMP was assayed by radioimmunoassay RIA as described by the aforementioned Ding et al. 1999. Protein content was determinate by the method of Lowry with bovine serum albumin as standard as described in the aforementioned Ding et al. 1999. The data are presented as mean±SEM of three separate experiments with triplicate incubations for each data point.
# [2] = system: cultured SV40 transformed cat iris sphincter smooth muscle (SV-CISM-2); details: WO 01/39766, cited from earlier work; for elevation of cGMP levels in vitro: SV-CISM-2 cells; for ability to elevate cGMP levels in cultured smooth muscle cells: comparison of the two compounds
# Male Sprague-Dawley rats = test: Systemic blood pressure and ECG of normotensive anesthetized rats, i.v. bolus injection; format: in vivo
# Protocol: Male Sprague-Dawley rats, weighing 250-350 grams were anaesthetized with mixture of Ketamine (90 mg/Kg body weight) and Xylazine (10 mg/Kg body weight) in a single bolus injection. The rats' chest was shaven; and the rats were secured in supine position. Anaesthetized rats were intubated with 18G catheter, connected to a ventilator [Harvard Apparatus] and ventilated with a room air (volume: 2 ml, rate: 70 per min). The left femoral vein was cannulated for drug administration, which is standardized to injections of 0.2 ml/100 grams body weight over a period of 0.5-1 minutes.
# For measurement of hemodynamic parameters [blood pressure (BP), heart rate (HR)] a cannula was inserted retrogradely into the left carotid artery. The tip of the catheter was positioned close to the origin of the subclavian artery.
# For continuous monitoring of blood pressure (systolic and diastolic pressure) and heart rate, the catheter was connected to a pressure transducer [Grass instrument co., Quincy, Mass. USA]. To monitor the ECG (electrocardiogram): two electrodes were connected to the animal's arms and one electrode was connected to its left leg. The monitoring system was calibrated at the beginning of each experiment. Recording all the steps of the calibration. ECG and hemodynamic parameters were recorded continuously during the whole experiment.
# Monitoring rate (speed of paper) was at 5 mm/sec. At different times (stabilization, after injections, blood pressure changes, etc.,) the monitoring rate was changed to 25 mm/sec. In addition routinely, every 5 minutes the monitoring rate was changed to 25 mm/sec. for 15 sec. ECG recordings were obtained at the same times as hemodynamic measurements.
# The test compound was administered by bolus injection intravenously at different doses (2,4,6,8 mg/Kg body weight). Each dose was administrated twice in the same manner. The second dose was given after the hemodynamic parameters were recovered (or stabilized) following the first injection.
# [3] = system: Spontaneously Hypertensive Rats (SHR); test: Systemic blood pressure of anesthetized Spontaneously Hypertensive Rats (i.v. bolus or p.o. intra stomach); format: in vivo, rat
# Protocol: Spontaneously Hypertensive Rats, (Harlan USA) 290-330 gr weight, were anaesthetized with 100-120 mg/kg Inactin in one single bolus injection i.p. The chest was shaven, and animal was secured in supine position. Anaesthetized rats were subject to tracheotomy with 18G catheter. The left femoral vein was cannulated for drug administration and infusion.
# For measurement of hemodynamic parameters a cannula was inserted retrogradely into the left carotid artery. The tip of the catheter was positioned close to the origin of the subclavian artery. The catheter was connected to a blood pressure measurement system (BioPac MP100 workstation, BioPac System inc.). ECG was recorded by BioPac MP100 workstation. The information was saved electronically.
# During the experiment 1 ml/h of Hartmann's solution was infused i.v.
# Alternatively an 80-125 mg/Kg of MCT-based formulation was injected p.o. intra stomach.
# [4] = 20 mg/Kg body weight i.v. bolus
# [5] = 20 mg/Kg body weight i.v. bolus, 30 minutes after injection
# [6] = oral administration, 80 or 125 mg/Kg
# [7] = 4 mg/Kg body weight, single dose
# [8] = 8 mg/Kg body weight i.v. bolus, 30 minutes after first injection, FIG. 1A
# [9] = 8 mg/Kg body weight i.v. bolus, 30 minutes after first injection, FIG. 1B
# [10] = additional (second) bolus injection 8 mg/Kg, after 30 minutes
compound,measurement,setting,value
"COC(=O)[C@@H](N)CCCNC(=N)N[N+](=O)[O-] [L-NAME, N^G-nitro-L-arginine methyl ester, reference compound]","effect on 1,7-dioxaspiro[5.5]undecane-stimulated cGMP formation","[1]; tested together with 1,7-dioxaspiro[5.5]undecane 0.1 μM, Anantin 1 μM, L-NAME 100 μM",attenuated
CCCC/C=C\CCCCCCCCCCOC(C)=O [Z-11-Hexadecenyl-Acetate],elevation of cGMP levels in vitro,[2],elevate cGMP levels
"CCCC/C=C\CCCCCCCCCCCC=O [Z-13-octadecenal, reference compound]",elevation of cGMP levels in vitro,[2],elevate cGMP levels
same,ability to elevate cGMP levels in cultured smooth muscle cells,[2],comparable ability to elevate cGMP levels
same,effect on blood pressure,"Male Sprague-Dawley rats; 4 mg/Kg body weight bolus, two animals, single and double dose",no reduction
same,effect on blood pressure,"Male Sprague-Dawley rats; 8 mg/Kg body weight bolus injection, five animals, FIG. 2",uncontrolled reduction in blood pressure in three out of five animals tested
same,response of systemic blood pressure in the two surviving animals,"Male Sprague-Dawley rats; 8 mg/Kg body weight, both injections",minimal or no response
same,toxicity of intravenous administration (mortality),"Male Sprague-Dawley rats; intravenous administration, five animals",death of three out of five animals tested
"C/C=C/C=C/CCCCCCCO [E,E-8,10-Dodecadienol]",elevation of cGMP levels in vitro,[2],elevate cGMP levels
CCCCCC/C=C\CCCCCC=O [Z-7-Tetradecenal],elevation of cGMP levels in vitro,[2],elevate cGMP levels
"C1=COC2(CC1)CCCCO2 (stereo not shown) [1,7-dioxaspiro[5.5]undec-2-ene]",reduction in diastolic blood pressure (range),[3]; [4],20-33%
same,reduction in systolic blood pressure (range),[3]; [5],18-28%
same,duration of effect,[3]; 20 mg/Kg i.v. bolus,about 30 minutes
same,time of maximal effect after the injection,[3]; 20 mg/Kg i.v. bolus,35 to 55 min
"C1CCC2(CCCCO2)OC1 [1,7-dioxaspiro[5.5]undecane]",cGMP formed % of control,[1]; 0.1 μM & Anantin (1 μM),253 % of control
same,cGMP formed,[1]; 0.1 μM & Anantin (1 μM),1.32 ± 0.1 pmol/mg protein/10 min
same,cGMP formed % of control,[1]; 0.1 μM & L-NAME (100 μM),182 % of control
same,cGMP formed,[1]; 0.1 μM & L-NAME (100 μM),0.94 ± 0.15 pmol/mg protein/10 min
same,cGMP formed % of control,[1]; 0.1 μM,236 % of control
same,cGMP formed,[1]; 0.1 μM,1.23 ± 0.1 pmol/mg protein/10 min
same,increase of cGMP concentration,"[1]; 0.1 μM, versus control",2.36 times
same,reduction in diastolic blood pressure (range),[3]; [4],15-28%
same,reduction in systolic blood pressure (range),[3]; [5],20-30%
same,duration of effect,[3]; 20 mg/Kg i.v. bolus,≥ 90 min
same,time of maximal effect after the injection,[3]; 20 mg/Kg i.v. bolus,110 to 120 min
same,reduction in systolic blood pressure (range),"[3]; oral administration, 80 mg/Kg body weight, after 150 minutes",15-28%
same,reduction in systolic blood pressure (range),"[3]; oral administration, 80 mg/Kg, after 150 minutes, stated under FIG. 5B (diastolic blood pressure)",20-30%
same,reduction in systolic blood pressure (range),"[3]; oral administration, 125 mg/Kg, 150 minutes post injection",30-45%
same,reduction in systolic blood pressure (range),"[3]; oral administration, 125 mg/Kg, after 150 minutes, stated under FIG. 5B (diastolic blood pressure)",40-53%
same,duration of effect,[3]; [6],about an hour
same,time of maximal effect after the injection,[3]; [6],150 to 220 min
same,elevation of cGMP levels in vitro,[2],elevate cGMP levels
same,ability to elevate cGMP levels in cultured smooth muscle cells,[2],comparable ability to elevate cGMP levels
same,effect on systemic blood pressure,"Male Sprague-Dawley rats; 2 mg/Kg body weight, single and double dose",no effect
same,hypotensive effect after second injection,"Male Sprague-Dawley rats; 4 mg/Kg body weight, second injection of the same dose",more pronounced
same,duration of hypotensive effect,Male Sprague-Dawley rats; [7],about 15 minutes
same,effect on systemic blood pressure,Male Sprague-Dawley rats; [7],mild hypotensive effect
same,reduction in systolic blood pressure (average),Male Sprague-Dawley rats; [8],18.1%
same,reduction in systolic blood pressure (range),Male Sprague-Dawley rats; [8],10-30%
same,reduction in diastolic blood pressure (average),Male Sprague-Dawley rats; [9],20.5%
same,reduction in diastolic blood pressure (range),Male Sprague-Dawley rats; [9],7-32%
same,reduction in diastolic blood pressure (average),Male Sprague-Dawley rats; [10],36.5%
same,reduction in diastolic blood pressure (range),Male Sprague-Dawley rats; [10],15-53%
same,reduction in systolic blood pressure (average),Male Sprague-Dawley rats; [10],28.3%
same,reduction in systolic blood pressure (range),Male Sprague-Dawley rats; [10],15-42%
same,effect on heart contractility (ECG monitoring),Male Sprague-Dawley rats; single and double dosage of 2-8 mg/Kg body weight i.v. bolus,no effect
